Data taken from PubChem BioAssay AID248 (DTP/NCI, 2004).
Inconclusive results and toxic doses are left out. Square brackets hold non-standard residues; d marks the D form. Peptide text beside a SMILES is read from it. * marks the point of attachment. ξ: configuration not given here. Cbz = O=C(OCc1ccccc1)*; ξI = CCC(C)C(N)C(=O)O; OBn = c1ccc(CO*)cc1; ξS = NC(CO)C(=O)O

Test system: L1210 leukemia ip in BDF1 mice, survival T/C
Assay: NCI In Vivo Anticancer Drug Screen. Data for tumor model L1210 Leukemia (intraperitoneal) in B6D2F1 (BDF1) mice
Conditions: endpoint: mean survival time, higher = longer survival
Method in brief: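 Antitumor effect is assessed in tumor-bearing animals. Survival in the compound arm is compared with a vehicle-dosed control arm and expressed as their quotient.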

[1] = dose: 100.0 mg/kg/injection, schedule: Q01DX009 (ip), vehicle: Klucel (hydroxypropylcellulose) (HPC)
[2] = dose: 200.0 mg/kg/injection, schedule: Q01DX009 (ip), vehicle: Klucel (hydroxypropylcellulose) (HPC)
[3] = dose: 400.0 mg/kg/injection, schedule: Q01DX009 (ip), vehicle: Klucel (hydroxypropylcellulose) (HPC)
[4] = dose: 100.0 mg/kg/injection, schedule: Q04DX003 (ip), vehicle: saline with Tween-80
[5] = dose: 200.0 mg/kg/injection, schedule: Q04DX003 (ip), vehicle: saline with Tween-80
[6] = dose: 400.0 mg/kg/injection, schedule: Q04DX003 (ip), vehicle: saline with Tween-80
[7] = dose: 100.0 mg/kg/injection, schedule: Q04DX003 (ip), vehicle: Klucel (hydroxypropylcellulose) (HPC)
[8] = dose: 200.0 mg/kg/injection, schedule: Q04DX003 (ip), vehicle: Klucel (hydroxypropylcellulose) (HPC)
[9] = dose: 400.0 mg/kg/injection, schedule: Q04DX003 (ip), vehicle: Klucel (hydroxypropylcellulose) (HPC)
[10] = dose: 100.0 mg/kg/injection, schedule: Q01DX001 (ip), vehicle: saline
[11] = dose: 200.0 mg/kg/injection, schedule: Q01DX001 (ip), vehicle: saline
[12] = dose: 400.0 mg/kg/injection, schedule: Q01DX001 (ip), vehicle: saline
[13] = dose: 100.0 mg/kg/injection, schedule: Q01DX009 (ip), vehicle: saline
[14] = dose: 200.0 mg/kg/injection, schedule: Q01DX009 (ip), vehicle: saline

For `O=P(Oc1ccc(OP(=O)(N2CC2)N2CC2)cc1)(N1CC1)N1CC1`, the T/C (dose: 9.0 mg/kg/injection, schedule: Q01DX009 (ip), vehicle: saline) was 96 % of control, the T/C (dose: 9.5 mg/kg/injection, schedule: Q01DX001 (ip), vehicle: saline) was 98 % of control and the T/C (dose: 13.0 mg/kg/injection, schedule: Q01DX009 (ip), vehicle: saline) was 110 % of control. For the same compound, the T/C (dose: 19.0 mg/kg/injection, schedule: Q01DX001 (ip), vehicle: saline) was 110 % of control, the T/C (dose: 20.0 mg/kg/injection, schedule: Q01DX009 (ip), vehicle: saline) was 104 % of control and the T/C (dose: 22.0 mg/kg/injection, schedule: Q01DX Z (ip), vehicle: other) was 103 % of control. For the same compound, the T/C (dose: 32.0 mg/kg/injection, schedule: Q01DX009 (ip), vehicle: saline) was 100 % of control, the T/C (dose: 33.0 mg/kg/injection, schedule: Q01DX Z (ip), vehicle: other) was 104 % of control and the T/C (dose: 38.0 mg/kg/injection, schedule: Q01DX001 (ip), vehicle: saline) was 102 % of control. For the same compound, the T/C (dose: 50.0 mg/kg/injection, schedule: Q01DX Z (ip), vehicle: other) was 114 % of control, the T/C (dose: 54.0 mg/kg/injection, schedule: Q01DX009 (ip), vehicle: saline) was 186 % of control and the T/C (dose: 75.0 mg/kg/injection, schedule: Q01DX Z (ip), vehicle: other) was 123 % of control. For the same compound, the T/C (dose: 90.0 mg/kg/injection, schedule: Q01DX009 (ip), vehicle: saline) was 166 % of control, the T/C (dose: 150.0 mg/kg/injection, schedule: Q01DX009 (ip), vehicle: saline) was 101 % of control and the T/C (dose: 300.0 mg/kg/injection, schedule: Q01DX001 (ip), vehicle: saline) was 153 % of control.
`NC(=O)CCC(NC(=O)OCc1ccccc1)C(=O)O` (stereo unspecified) was tested, and the T/C [1] was 91 % of control, the T/C (dose: 100.0 mg/kg/injection, schedule: Q04DX002 (ip), vehicle: Klucel (hydroxypropylcellulose) (HPC)) was 97 % of control and the T/C [2] was 112 % of control. For the same compound, the T/C (dose: 200.0 mg/kg/injection, schedule: Q04DX002 (ip), vehicle: Klucel (hydroxypropylcellulose) (HPC)) was 97 % of control, the T/C [3] was 109 % of control and the T/C (dose: 400.0 mg/kg/injection, schedule: Q04DX002 (ip), vehicle: Klucel (hydroxypropylcellulose) (HPC)) was 105 % of control.
With `CC[NH-].CC[NH-].[I][Pt+2][I]` the T/C (dose: 12.5 mg/kg/injection, schedule: Q04DX003 (ip), vehicle: saline) was 106 % of control, the T/C (dose: 25.0 mg/kg/injection, schedule: Q01DX009 (ip), vehicle: saline) was 109 % of control and the T/C (dose: 25.0 mg/kg/injection, schedule: Q04DX003 (ip), vehicle: saline) was 101 % of control. For the same compound, the T/C (dose: 50.0 mg/kg/injection, schedule: Q01DX009 (ip), vehicle: saline) was 105 % of control, the T/C (dose: 50.0 mg/kg/injection, schedule: Q04DX003 (ip), vehicle: saline) was 101 % of control and the T/C (dose: 100.0 mg/kg/injection, schedule: Q04DX003 (ip), vehicle: saline) was 110 % of control.
With `CCCC(=O)OC1CC(C)CCC1C(C)C` (stereo unspecified) the T/C (dose: 25.6 mg/kg/injection, schedule: Q04DX002 (ip), vehicle: saline with Tween-80) was 96 % of control, the T/C (dose: 64.0 mg/kg/injection, schedule: Q04DX002 (ip), vehicle: saline with Tween-80) was 96 % of control and the T/C (dose: 100.0 mg/kg/injection, schedule: Q01DX009 (ip), vehicle: saline with Tween-80) was 90 % of control. For the same compound, the T/C [4] was 88 % of control, the T/C (dose: 160.0 mg/kg/injection, schedule: Q04DX002 (ip), vehicle: saline with Tween-80) was 92 % of control and the T/C (dose: 200.0 mg/kg/injection, schedule: Q01DX009 (ip), vehicle: saline with Tween-80) was 94 % of control. The T/C [5] was 94 % of control, the T/C (dose: 400.0 mg/kg/injection, schedule: Q01DX009 (ip), vehicle: saline with Tween-80) was 92 % of control and the T/C (dose: 400.0 mg/kg/injection, schedule: Q04DX002 (ip), vehicle: saline with Tween-80) was 96 % of control. The T/C [6] was 100 % of control.
For `CC(C)CC(NC(=O)C(C)NC(=O)OCc1ccccc1)C(=O)OCc1ccccc1` (stereo unspecified), the T/C [4] was 92 % of control, the T/C [5] was 92 % of control and the T/C [6] was 91 % of control.
With `CC1=NN(c2ccccc2)C(=O)C1N=Nc1ccc(S(=O)(=O)Nc2ccccn2)cc1` (stereo unspecified) the T/C (dose: 100.0 mg/kg/injection, schedule: Q01DX001 (ip), vehicle: carboxymethylcellulose (CMC)) was 97 % of control, the T/C (dose: 200.0 mg/kg/injection, schedule: Q01DX001 (ip), vehicle: carboxymethylcellulose (CMC)) was 94 % of control and the T/C (dose: 400.0 mg/kg/injection, schedule: Q01DX001 (ip), vehicle: carboxymethylcellulose (CMC)) was 97 % of control.
For `CC1CCCN(C(=O)Nc2cccc(Cl)c2Cl)C1` (stereo unspecified), the T/C [1] was 87 % of control, the T/C [2] was 92 % of control and the T/C [3] was 96 % of control.
`O=C(CNC(=O)OCc1ccccc1)NC(CO)C(=O)OCc1ccccc1` (stereo not drawn) (Cbz-Gly-[ξS]-OBn) was tested, and the T/C [7] was 101 % of control, the T/C [8] was 101 % of control and the T/C [9] was 105 % of control.
`COC1(OC)C2(Cl)C3C(=O)C4C5C(=O)C3C1(Cl)C5(Cl)C42Cl` (stereo unspecified) was tested, and the T/C [10] was 105 % of control, the T/C [11] was 94 % of control and the T/C [12] was 89 % of control.
`OC(C#CC(O)c1ccccc1)c1ccccc1` (stereo unspecified) was tested, and the T/C [13] was 86 % of control, the T/C [4] was 97 % of control and the T/C [14] was 108 % of control. For the same compound, the T/C [5] was 94 % of control and the T/C [6] was 87 % of control.
In the case of `CCC(C)C(NC(=O)CNC(=O)OCc1ccccc1)C(=O)O` (stereo not drawn) (Cbz-Gly-[ξI]-OH), the T/C [4] is reported as 107 % of control, the T/C [5] is reported as 97 % of control and the T/C [6] is reported as 98 % of control.
For `CCOc1ccc2nc(/C=C/c3ccc(N(C)C)cc3)ccc2c1`, the T/C (dose: 50.0 mg/kg/injection, schedule: Q01DX009 (ip), vehicle: Klucel (hydroxypropylcellulose) (HPC)) was 94 % of control, the T/C [1] was 94 % of control and the T/C [2] was 92 % of control. For the same compound, the T/C [3] was 100 % of control.
In the case of `C=CCC(O)c1ccccc1` (stereo unspecified), the T/C (dose: 100.0 mg/kg/injection, schedule: Q04DX002 (ip), vehicle: saline) is reported as 103 % of control, the T/C (dose: 200.0 mg/kg/injection, schedule: Q04DX002 (ip), vehicle: saline) is reported as 100 % of control and the T/C (dose: 400.0 mg/kg/injection, schedule: Q04DX002 (ip), vehicle: saline) is reported as 113 % of control.
With `FC(F)(F)S.[Ag]` the T/C (dose: 75.0 mg/kg/injection, schedule: Q01DX001 (ip), vehicle: saline) was 95 % of control and the T/C (dose: 150.0 mg/kg/injection, schedule: Q01DX001 (ip), vehicle: saline) was 95 % of control.
For `O=C1OC(=O)C2C1C1c3ccccc3C13c1ccccc1C23` (stereo unspecified), the T/C [10] was 92 % of control, the T/C [13] was 110 % of control and the T/C [11] was 94 % of control. The T/C [14] was 100 % of control, the T/C [12] was 97 % of control and the T/C (dose: 400.0 mg/kg/injection, schedule: Q01DX009 (ip), vehicle: saline) was 89 % of control.
`O=[N+]([O-])c1cc(S(=O)(=O)O)cc([N+](=O)[O-])c1NN(c1ccccc1)c1ccccc1` was tested, and the T/C (dose: 44.0 mg/kg/injection, schedule: Q04DX003 (ip), vehicle: other) was 100 % of control, the T/C (dose: 87.0 mg/kg/injection, schedule: Q04DX003 (ip), vehicle: other) was 92 % of control and the T/C (dose: 175.0 mg/kg/injection, schedule: Q04DX003 (ip), vehicle: other) was 103 % of control.
With `CCCCCCCCCC(=O)N/N=C/c1ccco1` the T/C [1] was 87 % of control and the T/C [2] was 99 % of control.
With `CC1=CC(=N\S(=O)(=O)c2ccccc2)/C2(Cl)CC(C)=C(C)CC2/C1=N/S(=O)(=O)c1ccccc1` (stereo unspecified) the T/C (dose: 50.0 mg/kg/injection, schedule: Q01DX001 (ip), vehicle: Klucel (hydroxypropylcellulose) (HPC)) was 98 % of control, the T/C (dose: 100.0 mg/kg/injection, schedule: Q01DX001 (ip), vehicle: Klucel (hydroxypropylcellulose) (HPC)) was 95 % of control and the T/C (dose: 200.0 mg/kg/injection, schedule: Q01DX001 (ip), vehicle: Klucel (hydroxypropylcellulose) (HPC)) was 103 % of control.
`NNC(=O)CCN1CC1` was tested, and the T/C [7] was 109 % of control, the T/C [8] was 107 % of control and the T/C [9] was 115 % of control.
